From PubChem BioAssay (NCI)
“And” between values parts separate entries of the source, which are not always exact repeats. Equal values may be shown once.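 Cells were grown in 96-well plates and exposed to each compound for 48 hours at five concentrations; endpoints were interpolated linearly between bracketing concentrations, or set to the highest concentration if not reached. The concentration for 50% growth inhibition is given as GI50. The concentration for full growth arrest is given as TGI.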

system: MDA-MB-468 breast; assay: inhibition of tumour cell growth, NCI panel, 48 h

SMILES | GI50 | TGI
COc1cnc2c(c1)C(=O)c1c-2n(CCCN2CCCC2)c(=O)c2cc(F)ccc12 | 175 nM | 517 nM
C#Cc1cccc(Nc2nc3ccc([N+](=O)[O-])cc3nc2Nc2cccc(C#C)c2)c1 | 174 nM | 499 nM
COc1ccc(Cn2cc3c(c2-c2cc(OC)c(OC)c(OC)c2)CCc2cnoc2-3)cc1[N+](=O)[O-] | 376 nM | 4220 nM
CCOC(=O)c1cc2c(n1Cc1ccccc1)-c1oncc1CC2 | 2190 nM | 7760 nM
C/C(Cc1ccc(Cl)cc1)=C(/c1ccc(Cl)cc1)c1ccc(OCCN(C)C)cc1 | 2970 nM | 7760 nM
C=C1C(=O)O[C@H]2[C@H]1CC/C(COC(=O)c1ccc(C#N)cc1)=C\CC[C@@]1(C)O[C@@H]21 | 1030 nM | 3130 nM
CC(=O)[O][Hg][c]1ccccc1 | 154 nM | 341 nM
CCCCCc1ccc(S(=O)(=O)Nc2cc(-c3csc(NC(=O)CN4CCN(C)CC4)n3)ccc2OC)cc1 | 917 nM | 2110 nM
COc1cccc(C2C3=C(COC3=O)Oc3cc4c(cc32)OCO4)c1 (centres undefined) | 81.7 nM | > 100000 nM
O=C(O)c1ccc2c(c1)nc(Nc1cccc(Cl)c1)c1ccncc12 | 1050 nM and 1670 nM | 4840 nM and 8970 nM
CCCSC1=NC2C(N(CC)C(=O)N2CC)N1/N=C/C=C/c1ccccc1[N+](=O)[O-] (centres undefined) | 3060 nM | > 100000 nM
CCCCn1sc(=O)n(Cc2ccc(CNC(=O)OCc3ccc4c(Br)cc(Br)c(O)c4n3)cc2)c1=O | 388 nM | > 100000 nM
CCC1CCc2nc3sc(C(=O)Nc4ccccc4C)c(N)c3cc2C1 (centres undefined) | 244 nM | 742 nM
COc1cc2nc3cc([N+](=O)[O-])ccc3c(NCCCNCC(C)(C)O)c2cc1OC | 230 nM | 570 nM
C#CCOc1cccc(Nc2ncnc3ccc(NC(=O)CCl)cc23)c1 | 3160 nM | 27200 nM
Cc1nc2n(c(=O)c1CCN1CCC(c3noc4cc(F)ccc34)CC1)CCCC2 | 34000 nM | > 50000 nM
COc1ccc(-c2cc(-c3cc(OC)c(OC)c(OC)c3)c(C#N)c(N3CCOCC3)n2)cc1O | 13400 nM | > 100000 nM
COc1ccccc1S(=O)(=O)Nc1ccc2c(c1)CN(C)C(=O)N2 | 2400 nM and 1440 nM | > 56100 nM and 50300 nM
O=[N+]([O-])c1ccc2ncccc2c1Cl | 1870 nM | 4810 nM
C/C(=C\c1ccc(Cl)c(Cl)c1)[N+](=O)[O-] | 1550 nM | 3020 nM
CN(C[C@@H]1COCCO1)S(=O)(=O)Nc1ccc2ccc3ncc(-c4cnn(C)c4)cc3c(=O)c2c1 | 7130 nM | > 100000 nM

SMILES | GI50 | TGI
CN(CCCl)c1ccc(/C=C/C2=[N+](C)c3ccccc3C2(C)C)cc1 | 353 nM | 1690 nM
c1ccc(Cn2c(-c3ccc(OC[C@H](C4CCNCC4)n4c(-c5ccccc5)nc5ccccc54)cc3)nc3ccccc32)cc1 | 1120 nM | 2460 nM
O=C1CCc2c(sc3[nH]c(=S)n(Cc4ccccc4)c(=O)c23)C1 | 2950 nM | 9310 nM
CC(=O)OCC1O[C@@H]([S-])C(OC(C)=O)[C@H](OC(C)=O)[C@@H]1OC(C)=O.[Au+].c1ccc(CN2[CH-]N(Cc3ccccc3)C(c3ccccc3)=C2c2ccccc2)cc1 | 1540 nM | 3260 nM
CCN1C(=O)N(c2ccccc2)C2NN=c3s/c(=C4\C(=O)N(C(C)C)c5ccccc54)c(=O)n3C21 (centres undefined) | 817 nM | 4180 nM
COc1ccc(-c2nc3cc(Cl)c(Cl)cc3n2CC(=O)N=Nc2c(O)[nH]c3ccc(Cl)cc23)cc1 | 1700 nM | 3400 nM
O=C(CCCCCCSc1nc(-c2ccc(Cl)cc2)cc(-c2ccc(Cl)cc2)n1)NO | 1620 nM | 6380 nM
CCCCCCCC(=O)SCC/C=C/[C@@H]1CC(=O)NCc2nc(co2)C2=N[C@@](C)(CS2)C(=O)N[C@@H](C(C)C)C(=O)O1 | 29.1 nM | 23500 nM
O=C(O)C1(Cc2cccc(Nc3nccs3)n2)CCC(Oc2cccc(Cl)c2F)CC1 (centres undefined) | 526 nM | 34600 nM
COc1ccc(C(=O)COc2cccc(/C=C3\CSc4ccc(C)cc4C3=O)c2)cc1 | 4840 nM | 36900 nM
CC1=C[S+](c2ccccc2)c2cccc3cc4ccccc4c1c23 (centres undefined) | 78.5 nM | 766 nM
CCOC(=O)Nc1ccc(-c2nc(-c3cccc(OC)c3)c(-c3ccnc(Br)c3)[nH]2)cc1 | 1670 nM | 4910 nM
COc1ccc(C(=O)c2cc3c(N)c(C(=O)Nc4cccc(Cl)c4C)sc3nc2C)cc1 | 70.7 nM | 1220 nM
O=C(OCc1ccc2c(Cl)cc(Cl)c(O)c2n1)c1cc2ccccc2[nH]1 | 238 nM | 626 nM
Nc1c(C(=O)Nc2ccccc2F)sc2nc3c(cc12)C(=O)CCC3 | 247 nM | 956 nM
CCCCCc1ccc(S(=O)(=O)N(C(C)=O)c2cccc(-c3csc(N(CCN4CCN(C)CC4)C(C)=O)n3)c2)cc1 | 735 nM | 2710 nM
CS(=O)(=O)CCNCc1ccc(-c2ccc3ncnc(Nc4ccc(OCc5ccccc5)c(Cl)c4)c3c2)o1 | 10.7 nM | 196 nM
N[C@@H]1CCCN(c2c(/C=C3\SC(=O)NC3=O)cccc2-c2ccccc2)C1 | 9540 nM | 24500 nM
CNCCCNc1nc2ccccc2c2c(=O)c3cc(Cl)ccc3sc12 | 1260 nM | 2830 nM
Cc1c(NC(=O)OC[C@@H]2COCCN2)cn2ncnc(Nc3ccc4c(cnn4Cc4cccc(F)c4)c3)c12 | 120 nM and 45.4 nM | 1120 nM and 329 nM
Cc1ccc(S(=O)(=O)Cc2nc(-c3ccc(C(=O)NCc4cccnc4)cc3)oc2C)cc1 | 4740 nM | > 100000 nM
